Source: patent US8163909B2, “Substituted hydroxyethyl amine compounds as beta-secretase modulators and methods of use” (Amgen Inc., priority 2007, dated 2012)
Like-named read-outs stand apart in the source and are kept apart here.

Key:
[1] = molecular target: Beta Secretase enzyme (BACE) (Homo sapiens, UniProt P56817); test: In vitro enzymatic BACE FRET (fluorescence resonance energy transfer) assay; type: biochemical;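 note: fluorescence read after 1 h with 50 nM quenched peptide substrate spanning the BACE cleavage site, in pH 4.2 acetate buffer containing 10% DMSO and nonionic detergent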
[2] = test system: Aβ40 in conditioned medium of cells stably expressing Amyloid Precursor Protein (APP); test: In vitro BACE cell-based assay (Aβ40 in conditioned medium, sandwich ELISA); settings: Homo sapiens;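 note: compounds added as a dilution series, secreted peptide quantified by europium time-resolved fluorescence readout, potency fitted from percent of control versus compound concentration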
[3] = BACE enzyme assay, read-out: BACE1 FRET assay (IC50)
[4] = HEK293, HEK cells, cell-based assay, read-out: HEK cell assay (IC50)
[5] = BACE enzyme assay, IC50's in uM, read-out: BACE1 FRET assay
[6] = BACE enzyme FRET assay, read-out: BACE1 FRET assay (IC50)
[7] = Table 1, read-out: BACE1 FRET assay
[8] = HEK293, Table 1, HEK cells, read-out: HEK cell assay

Chain of Beta Secretase enzyme (BACE) (P56817 46-501): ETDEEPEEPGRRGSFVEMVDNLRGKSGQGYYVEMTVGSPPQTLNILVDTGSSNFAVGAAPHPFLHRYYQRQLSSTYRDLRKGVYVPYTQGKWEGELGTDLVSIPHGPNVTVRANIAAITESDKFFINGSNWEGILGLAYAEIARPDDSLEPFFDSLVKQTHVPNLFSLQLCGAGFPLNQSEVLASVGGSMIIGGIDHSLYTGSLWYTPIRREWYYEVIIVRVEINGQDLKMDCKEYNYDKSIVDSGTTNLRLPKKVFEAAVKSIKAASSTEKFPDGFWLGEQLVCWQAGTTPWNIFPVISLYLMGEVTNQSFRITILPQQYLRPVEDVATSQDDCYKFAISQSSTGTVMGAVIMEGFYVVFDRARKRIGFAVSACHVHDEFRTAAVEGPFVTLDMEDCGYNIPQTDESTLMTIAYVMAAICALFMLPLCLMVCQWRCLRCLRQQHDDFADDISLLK

Work on `COCC(=O)N[C@@H](Cc1cc(F)cc(F)c1)[C@H](O)CN[C@H]1CC2(CCC2)Oc2c(-c3ccncc3)cc(CC(C)(C)F)cc21` [compound 579] yielded an IC50 ([1]; read-out: BACE1 FRET assay (IC50)) of 0.014 µM and an IC50 ([2]; HEK293, HEK cells, read-out: HEK cell assay (IC50)) of 0.005 µM.
`CO[C@H](C)C(=O)N[C@@H](Cc1ccc2c(c1)OCO2)[C@H](O)CN[C@H]1CC2(CCC2)Oc2c1cc(CC(C)(C)C)nc2Cl` [compound 131] showed an IC50 [1, 3] of 0.0268 µM and an IC50 [2, 4] of 0.376 µM.
`CO[C@H](C)C(=O)N[C@@H](Cc1cc(F)cc(Cl)c1)[C@H](O)CN[C@H]1CC2(CCC2)Oc2ccc(CC(C)C)cc21` [compound 805] showed an IC50 [1, 5] of 0.003 µM and an IC50 ([2]; HEK293, HEK cell-based assay, IC50's in uM, read-out: HEK cell assay) of 0.07 µM.
For `CC(=O)N[C@@H](Cc1ccc(F)cc1)[C@H](O)CN[C@H]1CC2(CCC2)Oc2ncc(OC(C)(F)F)cc21` [compound 146], the IC50 [1, 3] was 0.421 µM and the IC50 [2, 4] was 1.25 µM.
`CC(=O)NC(Cc1ccc(F)cc1)C(O)CNC1CC2(CC(O)C2)Oc2ncc(CC(C)C)cc21` [compound 251, N-((1S,2R)-1-((4-fluorophenyl)methyl)-2-hydroxy-3-(((1s,3S,4′S)-3-hydroxy-6′-(2-methylpropyl)-3′,4′-dihydrospiro[cyclobutane-1,2′-pyrano[2,3-b]pyridin]-4′-yl)amino)propyl)acetamide] showed an IC50 [1, 6] of 0.00634 µM and an IC50 [2, 4] of 0.0118 µM.
`CC#Cc1cccc(C[C@H](NC(=O)[C@@H](C)OC)[C@H](O)CN[C@H]2CC3(CCC3)Oc3ncc(CC(C)(C)C)cc32)c1` [compound 895] gave an IC50 [1, 5] of 0.016 µM and an IC50 ([2]; HEK293, cell-based assay, HEK cells, IC50's in uM, read-out: HEK cell assay) of 0.017 µM.
For `CC(=O)N[C@@H](Cc1ccccc1)[C@H](O)CN[C@H]1CC2(CCC2)Oc2ncc(CC3(C(F)(F)F)CC3)cc21` [compound 318], the IC50 [1, 7] was 0.0347 µM and the IC50 [2, 8] was 0.085 µM.
For `COCC(=O)N[C@@H](Cc1ccc2c(c1)OCO2)[C@H](O)CN[C@H]1CC2(CCC2)Oc2nc(F)c(CC(C)C)cc21` [compound 337], the IC50 [1, 7] was 0.12 µM and the IC50 [2, 8] was 0.531 µM.
`COCC(=O)N[C@@H](Cc1cccc(F)c1)[C@H](O)CN[C@H]1CC2(CCC2)Oc2c(F)cc(CC(C)(C)C)cc21` [compound 221] showed an IC50 [1, 6] of 0.0137 µM and an IC50 [2, 4] of 0.0444 µM.
`CC(=O)N[C@@H](Cc1ccc(F)c(Cl)c1)[C@H](O)CN[C@H]1CC2(CCC2)Oc2ncc(CC(C)(C)C(F)F)cc21` [compound 215] showed an IC50 [1, 6] of 0.00705 µM and an IC50 [2, 4] of 0.0264 µM.
`CNc1nc(CC(C)(C)C)cc2c1OC1(CCC1)C[C@@H]2NC[C@@H](O)[C@H](Cc1ccc2c(c1)OCO2)NC(=O)COC` [compound 125] showed an IC50 [1, 3] of 0.057 µM and an IC50 [2, 4] of 0.0133 µM.
`COC(=O)N[C@@H](Cc1ccc2c(c1)OCO2)[C@H](O)CN[C@H]1CC2(CCC2)Oc2ncc([C@H](F)C(C)(C)C)cc21` [compound 359] gave an IC50 [1, 7] of 0.199 µM and an IC50 [2, 8] of 0.208 µM.
Work on `COCC(=O)N[C@@H](Cc1ccc2c(c1)OCO2)[C@H](O)CN[C@H]1CC2(CCC2)Oc2ccc(CC(C)(C)C)cc21` [compound 290] yielded an IC50 [1, 6] of 0.0231 µM and an IC50 [2, 4] of 0.0549 µM.
`COCC(=O)N[C@@H](Cc1ccc2c(c1)OCO2)[C@H](O)CN[C@H]1CC2(CCC2)Oc2ncc(C[C@H](C)C(F)(F)F)cc21` [compound 339] gave an IC50 [1, 7] of 0.0437 µM and an IC50 [2, 8] of 0.126 µM.
`CC(=O)NC(Cc1ccc2c(c1)OCO2)C(O)CNC1CC2(CC(O)C2)Oc2ncc(CC(C)C)cc21` [compound 247, N-((1S,2R)-1-(1,3-benzodioxol-5-ylmethyl)-2-hydroxy-3-(((1s,3S,4′S)-3-hydroxy-6′-(2-methylpropyl)-3′,4′-dihydrospiro[cyclobutane-1,2′-pyrano[2,3-b]pyridin]-4′-yl)amino)propyl)acetamide] gave an IC50 [1, 6] of 0.00677 µM and an IC50 [2, 4] of 0.0132 µM.
`COCC(=O)N[C@@H](Cc1cccc(F)c1)[C@H](O)CN[C@H]1CC2(CCC2)Oc2c(-c3ccncc3)cc(CC(C)(C)F)cc21` [compound 530] gave an IC50 ([1]; BACE enzyme assay, read-out: BACE1 FRET assay) of 0.015 µM and an IC50 ([2]; HEK293, HEK cells, read-out: HEK cell assay) of 0.01 µM.
In the case of `COc1cc(C[C@H](NC(=O)C(F)(F)F)[C@H](O)CN[C@H]2CC3(CCC3)Oc3ncc(CC(C)(C)C)cc32)ccc1F` [compound 80], the IC50 [1, 3] is reported as 0.0123 µM and the IC50 [2, 4] is reported as 0.125 µM.
For `COCC(=O)N[C@@H](Cc1cccc(F)c1)[C@H](O)CN[C@H]1CC2(CCC2)Oc2ncc(CC(C)(C)F)cc21` [compound 284], the IC50 [1, 6] was 0.00265 µM and the IC50 [2, 4] was 0.00477 µM.
